# Source: PMC8550792, “Evolution of kinase polypharmacology across HSP90 drug discovery” (Cell Chemical Biology, 2021)
# What was measured:
# Experiment in all cases: biochemical
# Format in all cases: biochemical
# 382 unique human kinases [1] = target: T1, 382 unique human kinases (Homo sapiens, UniProt P08581, D1228H); settings: c-MET (D1228H), 10 uM; for remaining activity at 10 µM: read-out: % Enzyme Activity (relative to DMSO controls)
# T1 construct: purchased Reaction Biology (HotSpot contract assay)
# 382 unique human kinases [2] = target: T2, 382 unique human kinases (Homo sapiens, UniProt Q86UE8); settings: TLK2, 10 uM; for remaining activity at 10 µM: read-out: % Enzyme Activity (relative to DMSO controls)
# T2 construct: purchased Reaction Biology (HotSpot contract assay)
# T2 sequence (Q86UE8 whole entry): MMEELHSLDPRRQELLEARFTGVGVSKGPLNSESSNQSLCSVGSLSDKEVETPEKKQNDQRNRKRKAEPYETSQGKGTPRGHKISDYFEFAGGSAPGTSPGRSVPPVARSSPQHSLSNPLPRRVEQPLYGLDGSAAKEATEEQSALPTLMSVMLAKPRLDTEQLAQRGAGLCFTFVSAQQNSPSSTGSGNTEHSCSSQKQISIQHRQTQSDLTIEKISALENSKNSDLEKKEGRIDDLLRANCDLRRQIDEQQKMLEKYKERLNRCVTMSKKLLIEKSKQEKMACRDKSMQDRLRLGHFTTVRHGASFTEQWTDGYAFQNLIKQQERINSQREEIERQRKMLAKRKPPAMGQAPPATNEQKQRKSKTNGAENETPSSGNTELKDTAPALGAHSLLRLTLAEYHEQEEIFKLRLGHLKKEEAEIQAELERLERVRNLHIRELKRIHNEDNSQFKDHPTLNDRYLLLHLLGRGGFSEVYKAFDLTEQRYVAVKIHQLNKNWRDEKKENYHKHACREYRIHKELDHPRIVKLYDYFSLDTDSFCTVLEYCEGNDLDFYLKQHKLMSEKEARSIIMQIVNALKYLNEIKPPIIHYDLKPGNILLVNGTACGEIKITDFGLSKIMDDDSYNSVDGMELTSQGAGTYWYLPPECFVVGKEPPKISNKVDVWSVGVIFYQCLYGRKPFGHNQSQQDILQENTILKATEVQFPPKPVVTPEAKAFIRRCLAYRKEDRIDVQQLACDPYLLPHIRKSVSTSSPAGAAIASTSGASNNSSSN
# 382 unique human kinases [3] = target: T3, 382 unique human kinases (Homo sapiens, UniProt Q9UM73, G1269A); settings: ALK (G1269A), [ATP] 2.5 µM, compound 10 uM; for remaining activity at 10 µM: read-out: % Enzyme Activity (relative to DMSO controls)
# T3 construct: purchased Reaction Biology (HotSpot contract assay)
# 382 unique human kinases [4] = target: T4, 382 unique human kinases (Homo sapiens, UniProt P00519); settings: ABL1, [ATP] 40 µM
# T4 construct: purchased Reaction Biology (HotSpot contract assay)
# T4 sequence (P00519 whole entry): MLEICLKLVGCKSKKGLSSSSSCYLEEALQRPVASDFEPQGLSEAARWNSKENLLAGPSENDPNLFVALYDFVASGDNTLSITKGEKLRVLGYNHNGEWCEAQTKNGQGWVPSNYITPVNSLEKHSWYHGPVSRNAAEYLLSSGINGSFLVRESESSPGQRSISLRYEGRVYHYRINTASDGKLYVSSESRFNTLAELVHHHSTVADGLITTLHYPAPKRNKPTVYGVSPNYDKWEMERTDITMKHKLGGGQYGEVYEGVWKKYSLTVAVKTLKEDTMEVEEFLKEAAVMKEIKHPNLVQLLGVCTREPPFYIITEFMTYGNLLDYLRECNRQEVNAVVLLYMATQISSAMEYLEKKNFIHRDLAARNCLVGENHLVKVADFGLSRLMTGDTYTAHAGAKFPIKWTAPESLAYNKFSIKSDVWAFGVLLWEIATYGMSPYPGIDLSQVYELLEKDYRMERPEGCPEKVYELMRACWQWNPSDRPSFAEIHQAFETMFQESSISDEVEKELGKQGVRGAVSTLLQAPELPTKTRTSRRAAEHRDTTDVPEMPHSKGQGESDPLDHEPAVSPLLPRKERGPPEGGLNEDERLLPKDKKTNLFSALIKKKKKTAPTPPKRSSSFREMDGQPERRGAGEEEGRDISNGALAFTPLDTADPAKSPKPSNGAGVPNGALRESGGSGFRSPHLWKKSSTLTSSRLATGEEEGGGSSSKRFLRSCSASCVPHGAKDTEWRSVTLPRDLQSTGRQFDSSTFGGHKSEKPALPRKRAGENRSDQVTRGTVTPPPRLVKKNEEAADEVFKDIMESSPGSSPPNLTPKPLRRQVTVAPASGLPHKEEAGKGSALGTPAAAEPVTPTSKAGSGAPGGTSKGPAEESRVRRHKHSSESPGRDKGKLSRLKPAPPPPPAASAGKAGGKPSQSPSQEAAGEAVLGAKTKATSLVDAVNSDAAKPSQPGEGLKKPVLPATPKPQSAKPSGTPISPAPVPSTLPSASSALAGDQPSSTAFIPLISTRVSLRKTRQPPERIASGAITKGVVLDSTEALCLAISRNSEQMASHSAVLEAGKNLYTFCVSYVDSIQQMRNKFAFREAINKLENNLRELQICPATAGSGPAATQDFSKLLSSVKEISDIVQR
# 382 unique human kinases [5] = target: T5, 382 unique human kinases (Homo sapiens, UniProt Q9NZJ5); settings: EIF2AK3, 10 uM; for remaining activity at 10 µM: read-out: % Enzyme Activity (relative to DMSO controls)
# T5 construct: purchased Reaction Biology (HotSpot contract assay)
# T5 sequence (Q9NZJ5 30-1116): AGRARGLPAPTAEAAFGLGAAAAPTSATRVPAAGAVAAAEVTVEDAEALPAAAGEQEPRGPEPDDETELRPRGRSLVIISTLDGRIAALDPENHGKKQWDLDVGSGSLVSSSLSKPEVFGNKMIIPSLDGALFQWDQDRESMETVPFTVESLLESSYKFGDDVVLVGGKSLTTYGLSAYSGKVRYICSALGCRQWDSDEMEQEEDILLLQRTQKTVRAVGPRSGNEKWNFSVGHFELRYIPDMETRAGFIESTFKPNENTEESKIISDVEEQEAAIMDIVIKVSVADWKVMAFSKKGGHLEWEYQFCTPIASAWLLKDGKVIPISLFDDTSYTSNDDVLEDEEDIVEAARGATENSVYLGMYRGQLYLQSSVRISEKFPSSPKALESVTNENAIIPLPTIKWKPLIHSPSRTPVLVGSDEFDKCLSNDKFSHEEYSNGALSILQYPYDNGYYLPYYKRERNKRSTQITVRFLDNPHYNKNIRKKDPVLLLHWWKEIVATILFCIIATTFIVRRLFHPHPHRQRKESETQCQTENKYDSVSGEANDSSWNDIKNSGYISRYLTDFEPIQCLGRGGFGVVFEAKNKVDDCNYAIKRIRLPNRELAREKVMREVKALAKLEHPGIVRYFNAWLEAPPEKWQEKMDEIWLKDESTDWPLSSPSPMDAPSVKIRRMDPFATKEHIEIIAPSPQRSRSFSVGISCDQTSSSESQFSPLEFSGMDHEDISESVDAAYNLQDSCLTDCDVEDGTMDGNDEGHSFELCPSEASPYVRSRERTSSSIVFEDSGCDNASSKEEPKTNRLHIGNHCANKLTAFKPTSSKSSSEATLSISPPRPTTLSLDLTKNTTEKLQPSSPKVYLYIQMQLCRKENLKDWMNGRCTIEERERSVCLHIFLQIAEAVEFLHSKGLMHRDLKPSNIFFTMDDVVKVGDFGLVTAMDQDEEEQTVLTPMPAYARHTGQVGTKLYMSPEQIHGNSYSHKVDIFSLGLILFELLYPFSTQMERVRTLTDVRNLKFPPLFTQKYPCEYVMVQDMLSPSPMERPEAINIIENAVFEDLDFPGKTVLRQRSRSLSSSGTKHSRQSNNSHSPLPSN
# 382 unique human kinases [6] = target: T6, 382 unique human kinases (Homo sapiens, UniProt Q9UM73, F1174S); settings: ALK (F1174S), [ATP] 20 µM, compound 10 uM; for remaining activity at 10 µM: read-out: % Enzyme Activity (relative to DMSO controls)
# T6 construct: purchased Reaction Biology (HotSpot contract assay)
# 382 unique human kinases [7] = target: T7, 382 unique human kinases (Homo sapiens, UniProt P00533, DEL747-749); settings: EGFR (d747-749), 10 uM; for remaining activity at 10 µM: read-out: % Enzyme Activity (relative to DMSO controls)
# T7 construct: purchased Reaction Biology (HotSpot contract assay)
# 382 unique human kinases [8] = target: T8, 382 unique human kinases (Homo sapiens, UniProt Q96QT4); settings: kinase TRPM7/CHAK1, compound 10 uM; for remaining activity at 10 µM: read-out: % Enzyme Activity (relative to DMSO controls)
# T8 construct: purchased Reaction Biology (HotSpot contract assay)
# 382 unique human kinases [9] = target: T9, 382 unique human kinases (Homo sapiens, UniProt P21802, E565G); settings: kinase FGFR2 (E565G), compound 10 uM; for remaining activity at 10 µM: read-out: % Enzyme Activity (relative to DMSO controls)
# T9 construct: purchased Reaction Biology (HotSpot contract assay)
# T9 sequence (P21802 22-821 E565G): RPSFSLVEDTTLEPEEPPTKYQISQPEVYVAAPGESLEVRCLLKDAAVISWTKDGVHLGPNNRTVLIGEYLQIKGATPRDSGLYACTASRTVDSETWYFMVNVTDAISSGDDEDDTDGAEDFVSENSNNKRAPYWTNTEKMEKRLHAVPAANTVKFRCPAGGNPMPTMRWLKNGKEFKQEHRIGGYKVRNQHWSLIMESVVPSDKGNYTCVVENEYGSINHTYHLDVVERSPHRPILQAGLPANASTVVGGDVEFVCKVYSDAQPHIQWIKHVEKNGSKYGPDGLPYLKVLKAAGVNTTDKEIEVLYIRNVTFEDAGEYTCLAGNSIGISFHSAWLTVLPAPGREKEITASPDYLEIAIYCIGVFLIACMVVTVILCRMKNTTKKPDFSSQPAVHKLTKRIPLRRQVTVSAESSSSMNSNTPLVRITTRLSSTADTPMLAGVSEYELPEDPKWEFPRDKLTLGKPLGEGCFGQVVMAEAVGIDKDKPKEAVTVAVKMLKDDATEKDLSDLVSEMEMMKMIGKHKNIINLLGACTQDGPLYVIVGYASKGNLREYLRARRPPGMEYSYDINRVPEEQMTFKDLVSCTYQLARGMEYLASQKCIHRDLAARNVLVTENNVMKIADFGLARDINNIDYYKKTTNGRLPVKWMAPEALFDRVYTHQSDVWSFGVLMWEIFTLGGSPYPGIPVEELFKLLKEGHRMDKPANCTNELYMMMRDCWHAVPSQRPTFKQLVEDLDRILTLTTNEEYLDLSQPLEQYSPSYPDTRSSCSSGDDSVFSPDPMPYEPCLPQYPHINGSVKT
# 382 unique human kinases [10] = target: T10, 382 unique human kinases (Homo sapiens, UniProt P43403, Y319F); settings: ZAP70 (Y319F), 10 uM; for remaining activity at 10 µM: read-out: % Enzyme Activity (relative to DMSO controls)
# T10 construct: purchased Reaction Biology (HotSpot contract assay)
# T10 sequence (P43403 1-619 Y319F): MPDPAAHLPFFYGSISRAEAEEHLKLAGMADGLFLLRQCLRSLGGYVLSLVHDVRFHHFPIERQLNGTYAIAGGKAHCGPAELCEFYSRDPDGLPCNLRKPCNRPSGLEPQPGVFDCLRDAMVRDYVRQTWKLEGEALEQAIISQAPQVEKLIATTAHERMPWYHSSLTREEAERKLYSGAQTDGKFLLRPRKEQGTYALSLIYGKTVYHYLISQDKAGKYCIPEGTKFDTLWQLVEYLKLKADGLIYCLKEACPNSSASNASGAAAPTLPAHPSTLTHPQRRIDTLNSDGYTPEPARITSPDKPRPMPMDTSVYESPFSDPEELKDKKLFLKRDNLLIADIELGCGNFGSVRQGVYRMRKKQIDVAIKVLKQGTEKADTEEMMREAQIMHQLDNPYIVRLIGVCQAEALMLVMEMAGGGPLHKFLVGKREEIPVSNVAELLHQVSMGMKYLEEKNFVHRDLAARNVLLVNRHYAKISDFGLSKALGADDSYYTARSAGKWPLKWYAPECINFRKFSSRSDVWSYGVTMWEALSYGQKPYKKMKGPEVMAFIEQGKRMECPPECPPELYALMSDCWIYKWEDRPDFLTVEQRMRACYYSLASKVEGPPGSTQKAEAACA
# 382 unique human kinases [11] = target: T11, 382 unique human kinases (Homo sapiens, UniProt P07949, V804M); settings: RET (V804M), 10 uM; for remaining activity at 10 µM: read-out: % Enzyme Activity (relative to DMSO controls)
# T11 construct: purchased Reaction Biology (HotSpot contract assay)
# T11 sequence (P07949 29-1114 V804M): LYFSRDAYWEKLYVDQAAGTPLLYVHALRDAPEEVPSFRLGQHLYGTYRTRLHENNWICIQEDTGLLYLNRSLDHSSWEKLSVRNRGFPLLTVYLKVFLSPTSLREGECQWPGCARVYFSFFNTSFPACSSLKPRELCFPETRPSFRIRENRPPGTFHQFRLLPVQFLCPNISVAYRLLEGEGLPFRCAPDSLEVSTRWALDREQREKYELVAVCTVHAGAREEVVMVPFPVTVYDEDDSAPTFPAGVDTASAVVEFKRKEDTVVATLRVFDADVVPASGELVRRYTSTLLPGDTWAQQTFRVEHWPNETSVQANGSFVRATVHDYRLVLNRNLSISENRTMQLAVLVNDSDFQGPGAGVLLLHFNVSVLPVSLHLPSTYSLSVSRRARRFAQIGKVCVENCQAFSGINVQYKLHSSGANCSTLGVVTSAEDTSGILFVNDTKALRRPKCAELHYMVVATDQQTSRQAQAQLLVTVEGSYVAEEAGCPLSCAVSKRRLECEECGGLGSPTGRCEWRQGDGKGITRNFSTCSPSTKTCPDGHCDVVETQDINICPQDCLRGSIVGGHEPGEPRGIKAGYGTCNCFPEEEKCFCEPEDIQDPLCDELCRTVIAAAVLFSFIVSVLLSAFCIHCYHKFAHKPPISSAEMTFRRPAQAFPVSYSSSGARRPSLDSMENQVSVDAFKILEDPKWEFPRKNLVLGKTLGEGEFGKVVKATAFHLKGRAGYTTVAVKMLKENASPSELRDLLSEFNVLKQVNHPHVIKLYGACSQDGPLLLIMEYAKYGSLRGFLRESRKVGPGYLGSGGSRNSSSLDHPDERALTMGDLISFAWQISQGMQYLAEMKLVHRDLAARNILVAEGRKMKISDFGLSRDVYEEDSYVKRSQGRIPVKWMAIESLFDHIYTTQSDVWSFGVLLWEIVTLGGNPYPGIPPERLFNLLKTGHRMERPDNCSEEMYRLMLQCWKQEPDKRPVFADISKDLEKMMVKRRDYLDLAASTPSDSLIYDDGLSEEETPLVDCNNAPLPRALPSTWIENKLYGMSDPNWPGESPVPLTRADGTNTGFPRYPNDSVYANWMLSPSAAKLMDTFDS
# 382 unique human kinases [12] = target: T12, 382 unique human kinases (Homo sapiens, UniProt Q9H422); settings: HIPK3, compound at 10 uM, duplicate values; for remaining activity at 10 µM: read-out: % Enzyme Activity (relative to DMSO controls)
# T12 construct: purchased Reaction Biology (HotSpot contract assay)
# T12 sequence (Q9H422 whole entry): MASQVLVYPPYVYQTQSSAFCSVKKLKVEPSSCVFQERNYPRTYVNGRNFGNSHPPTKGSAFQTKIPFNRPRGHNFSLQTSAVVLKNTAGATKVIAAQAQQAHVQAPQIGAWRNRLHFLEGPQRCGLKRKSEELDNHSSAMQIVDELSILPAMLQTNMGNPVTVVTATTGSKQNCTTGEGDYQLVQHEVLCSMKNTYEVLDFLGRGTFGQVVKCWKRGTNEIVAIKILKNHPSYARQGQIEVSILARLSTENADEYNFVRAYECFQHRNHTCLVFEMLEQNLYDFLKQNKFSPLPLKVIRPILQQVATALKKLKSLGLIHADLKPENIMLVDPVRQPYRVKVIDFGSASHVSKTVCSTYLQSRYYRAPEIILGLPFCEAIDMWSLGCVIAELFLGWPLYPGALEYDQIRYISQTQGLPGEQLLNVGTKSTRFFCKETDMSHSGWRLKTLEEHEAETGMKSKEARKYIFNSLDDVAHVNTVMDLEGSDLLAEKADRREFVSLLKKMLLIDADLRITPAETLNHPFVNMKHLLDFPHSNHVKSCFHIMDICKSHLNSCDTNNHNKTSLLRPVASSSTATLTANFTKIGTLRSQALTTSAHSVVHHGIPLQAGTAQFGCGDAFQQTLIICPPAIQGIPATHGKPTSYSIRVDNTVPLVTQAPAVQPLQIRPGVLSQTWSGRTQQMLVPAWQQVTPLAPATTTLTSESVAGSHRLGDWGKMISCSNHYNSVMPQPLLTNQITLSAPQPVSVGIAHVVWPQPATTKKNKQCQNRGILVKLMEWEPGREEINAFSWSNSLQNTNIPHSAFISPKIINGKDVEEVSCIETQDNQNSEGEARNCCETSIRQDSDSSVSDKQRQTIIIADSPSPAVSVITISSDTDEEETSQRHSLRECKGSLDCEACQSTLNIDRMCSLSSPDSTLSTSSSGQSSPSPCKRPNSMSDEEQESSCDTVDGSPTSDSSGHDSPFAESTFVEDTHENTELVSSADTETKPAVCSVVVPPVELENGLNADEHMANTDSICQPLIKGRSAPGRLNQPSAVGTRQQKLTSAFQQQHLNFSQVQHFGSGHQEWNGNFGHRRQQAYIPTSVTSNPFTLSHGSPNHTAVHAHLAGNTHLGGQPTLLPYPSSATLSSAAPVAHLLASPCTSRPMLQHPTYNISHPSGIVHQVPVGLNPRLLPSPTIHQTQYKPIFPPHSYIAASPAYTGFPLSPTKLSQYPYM
SMILES,remaining activity at 10 µM (382 unique human kinases [1]) [%],remaining activity at 10 µM (382 unique human kinases [2]) [%],remaining activity at 10 µM (382 unique human kinases [3]) [%],remaining activity at 10 µM (382 unique human kinases [5]) [%],remaining activity at 10 µM (382 unique human kinases [6]) [%],remaining activity at 10 µM (382 unique human kinases [7]) [%],remaining activity at 10 µM (382 unique human kinases [8]) [%],remaining activity at 10 µM (382 unique human kinases [9]) [%],remaining activity at 10 µM (382 unique human kinases [10]) [%],remaining activity at 10 µM (382 unique human kinases [11]) [%],remaining activity at 10 µM (382 unique human kinases [12]) [%],also measured
CCNC(=O)c1noc(-c2cc(C(C)C)c(O)cc2O)c1-c1ccc(CN2CCOCC2)cc1 [Luminespib],92.4,98.7,90.3,104,98.7,99.3,,,,,,"% Enzyme Activity (relative to DMSO controls) (382 unique human kinases [1]): 91.15%; % Enzyme Activity (relative to DMSO controls) (382 unique human kinases [2]): 97.34%; % Enzyme Activity (relative to DMSO controls) (382 unique human kinases [3]): 90.09%; % Enzyme Activity (relative to DMSO controls) (382 unique human kinases [4]; compound 10 uM): 6.22%; remaining activity at 10 µM (382 unique human kinases [4]; compound 10 uM, read-out: % Enzyme Activity (relative to DMSO controls)): 6.93%; % Enzyme Activity (relative to DMSO controls) (382 unique human kinases [5]): 103.58%; % Enzyme Activity (relative to DMSO controls) (382 unique human kinases [6]): 97.77%; % Enzyme Activity (relative to DMSO controls) (382 unique human kinases [7]): 98.26%"
CC(C)c1cc(-c2n[nH]c(=O)n2-c2ccc3c(ccn3C)c2)c(O)cc1O [Ganetespib (STA9090)],,,,,,,92.2,79.4,88.4,81,111,
CCNC(=O)c1noc(-c2cc(C(C)C)c(O)cc2O)c1-c1ccc(CN2CCOCC2)cc1 [Luminespib (AUY-922)],,,,,,,101,98.6,68.9,98.7,108,% Enzyme Activity (relative to DMSO controls) (382 unique human kinases [8]): 98.95%; % Enzyme Activity (relative to DMSO controls) (382 unique human kinases [9]): 97.20%; % Enzyme Activity (relative to DMSO controls) (382 unique human kinases [10]): 63.89%; % Enzyme Activity (relative to DMSO controls) (382 unique human kinases [11]): 97.95%; % Enzyme Activity (relative to DMSO controls) (382 unique human kinases [12]): 106.96%
CC(C)c1cc(-c2n[nH]c(=O)n2-c2ccc3c(ccn3C)c2)c(O)cc1O [Ganetespib],98.6,91.9,55.7,101,50.7,96.5,,,,,,"remaining activity at 1 µM (382 unique human kinases [4]; compound 1 uM, read-out: % Enzyme Activity (relative to DMSO controls)): 18.3%"
